Source: patent publication US10597388B2, “Pyridazinone herbicides” (FMC CORPORATION, priority 2014, dated 2020)

How the values were obtained:
Test in all cases: Test C greenhouse herbicide test, pre- and postemergence
Format in all cases: in vivo
[1] = test system: nutsedge, yellow (yellow nutsedge, Cyperus esculentus)
In short: (§1)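 Visual ratings on a 0 to 100 scale (0 = no effect, 100 = complete control) versus untreated controls, scored 13–15 d after treatment. Soil-applied preemergence to seeded loam/sand; foliar postemergence to 1- to 4-leaf plants (2–18 cm) in peat-vermiculite mix; compounds formulated in solvent plus surfactant.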

[2] = test system: oilseed rape (Brassica napus)
In short: as §1

[3] = test system: galium (catchweed bedstraw, Galium aparine)
In short: as §1

[4] = test system: pigweed (Amaranthus retroflexus)
In short: as §1

[5] = test system: velvetleaf (Abutilon theophrasti)
In short: as §1

corn (Zea mays) = test system: corn (Zea mays)
In short: as §1

[6] = test system: lambsquarters (Chenopodium album)
In short: as §1

[7] = test system: morningglory (Ipomoea coccinea)
In short: as §1

[8] = test system: crabgrass, large (large crabgrass, Digitaria sanguinalis)
In short: as §1

[9] = test system: blackgrass (Alopecurus myosuroides)
In short: as §1

[10] = test system: wheat (winter wheat, Triticum aestivum)
In short: as §1

[11] = test system: foxtail, giant (giant foxtail, Setaria faberii)
In short: as §1

[12] = test system: johnsongrass (Sorghum halepense)
In short: as §1

[13] = test system: waterhemp (common waterhemp, Amaranthus rudis)
In short: as §1

soybean (Glycine max) = test system: soybean (Glycine max)
In short: as §1

[14] = test system: ryegrass, Italian (Italian ryegrass, Lolium multiflorum)
In short: as §1

[15] = Postemergence, 31 g ai/ha, 0 to 100 scale (0 no effect, 100 complete control)
[16] = Postemergence, 250 g ai/ha, scale 0 to 100, 0 no effect, 100 complete control, 13 to 15 d
[17] = Preemergence, 31 g ai/ha, scale 0 to 100, 0 is no effect, 100 is complete control
[18] = Preemergence, 62 g ai/ha, scale 0 to 100, 0 is no effect, 100 is complete control
[19] = Preemergence, 125 g ai/ha, scale 0 to 100, 0 is no effect, 100 is complete control
[20] = Preemergence, 250 g ai/ha, scale 0 to 100 (0 no effect, 100 complete control)
[21] = postemergence, 62 g ai/ha, scale 0 to 100, 0 no effect, 100 complete control
[22] = Postemergence, 125 g ai/ha, scale 0 to 100, 0 is no effect, 100 is complete control
[23] = Postemergence, 31 g ai/ha, scale 0 to 100 (0 no effect, 100 complete control)
[24] = Postemergence, 62 g ai/ha, 0 to 100 scale (0 no effect, 100 complete control)
[25] = Postemergence, 250 g ai/ha, scale 0 to 100, 0 is no effect, 100 is complete control
[26] = postemergence, 125 g ai/ha, scale 0 to 100, 0 no effect, 100 complete control

CCC(=O)Oc1c(C)nn(C)c(=O)c1-c1c(C)sc2ccc(C)cc12 [Compound 42]
Nutsedge, Yellow plant response rating [1, 15]: 65
Plant response rating, Nutsedge, Yellow [1, 16]: 95
Plant response rating, Nutsedge, Yellow [1, 17]: 55
Plant response rating, Nutsedge, Yellow [1, 18]: 60
Plant response rating, Nutsedge, Yellow [1, 19]: 40
Nutsedge, Yellow plant response rating [1, 20]: 80
Nutsedge, Yellow plant response rating [1, 21]: 75
Oilseed Rape plant response rating [2, 15]: 0
Plant response rating, Oilseed Rape [2, 22]: 10
Plant response rating, Oilseed Rape [2, 16]: 0
Plant response rating, Oilseed Rape [2, 17]: 0
Plant response rating, Oilseed Rape [2, 18]: 0
Plant response rating, Oilseed Rape [2, 19]: 5
Oilseed Rape plant response rating [2, 20]: 20
Oilseed Rape plant response rating [2, 21]: 5
Galium plant response rating [3, 15]: 95
Plant response rating, Galium [3, 22]: 100
Plant response rating, Galium [3, 16]: 95
Plant response rating, Galium [3, 17]: 90
Plant response rating, Galium [3, 18]: 90
Plant response rating, Galium [3, 19]: 95
Galium plant response rating [3, 20]: 98
Galium plant response rating [3, 21]: 90
Pigweed plant response rating [4, 15]: 85
Plant response rating, Pigweed [4, 22]: 98
Plant response rating, Pigweed [4, 16]: 98
Plant response rating, Pigweed [4, 17]: 100
Plant response rating, Pigweed [4, 18]: 100
Plant response rating, Pigweed [4, 19]: 100
Pigweed plant response rating [4, 20]: 100
Pigweed plant response rating [4, 21]: 95
Velvetleaf plant response rating [5, 15]: 45
Plant response rating, Velvetleaf [5, 22]: 85
Plant response rating, Velvetleaf [5, 16]: 95
Plant response rating, Velvetleaf [5, 17]: 85
Plant response rating, Velvetleaf [5, 18]: 90
Plant response rating, Velvetleaf [5, 19]: 90
Velvetleaf plant response rating [5, 20]: 98
Velvetleaf plant response rating [5, 21]: 85
Corn plant response rating (corn (Zea mays); [15]): 0
Plant response rating, Corn (corn (Zea mays); [22]): 5
Plant response rating, Corn (corn (Zea mays); [16]): 5
Plant response rating, Corn (corn (Zea mays); [17]): 0
Plant response rating, Corn (corn (Zea mays); [18]): 0
Plant response rating, Corn (corn (Zea mays); [19]): 10
Corn plant response rating (corn (Zea mays); [20]): 35
Corn plant response rating (corn (Zea mays); [21]): 5
Lambsquarters plant response rating [6, 15]: 85
Plant response rating, Lambsquarters [6, 22]: 100
Plant response rating, Lambsquarters [6, 16]: 98
Plant response rating, Lambsquarters [6, 17]: 85
Plant response rating, Lambsquarters [6, 18]: 80
Plant response rating, Lambsquarters [6, 19]: 85
Lambsquarters plant response rating [6, 20]: 90
Lambsquarters plant response rating [6, 21]: 95
Morningglory plant response rating [7, 15]: 75
Plant response rating, Morningglory [7, 22]: 100
Plant response rating, Morningglory [7, 16]: 100
Plant response rating, Morningglory [7, 17]: 85
Plant response rating, Morningglory [7, 18]: 98
Plant response rating, Morningglory [7, 19]: 98
Morningglory plant response rating [7, 20]: 98
Morningglory plant response rating [7, 21]: 100
Crabgrass, Large plant response rating [8, 15]: 10
Plant response rating, Crabgrass, Large [8, 22]: 20
Plant response rating, Crabgrass, Large [8, 16]: 20
Plant response rating, Crabgrass, Large [8, 17]: 55
Plant response rating, Crabgrass, Large [8, 18]: 70
Plant response rating, Crabgrass, Large [8, 19]: 80
Crabgrass, Large plant response rating [8, 20]: 85
Crabgrass, Large plant response rating [8, 21]: 15
Blackgrass plant response rating [9, 15]: 30
Plant response rating, Blackgrass [9, 22]: 60
Plant response rating, Blackgrass [9, 16]: 70
Plant response rating, Blackgrass [9, 17]: 40
Plant response rating, Blackgrass [9, 18]: 85
Plant response rating, Blackgrass [9, 19]: 90
Blackgrass plant response rating [9, 20]: 90
Blackgrass plant response rating [9, 21]: 35
Wheat plant response rating [10, 15]: 0
Plant response rating, Wheat [10, 22]: 0
Plant response rating, Wheat [10, 16]: 0
Plant response rating, Wheat [10, 17]: 0
Plant response rating, Wheat [10, 18]: 0
Plant response rating, Wheat [10, 19]: 0
Wheat plant response rating [10, 20]: 5
Wheat plant response rating [10, 21]: 0
Foxtail, Giant plant response rating [11, 15]: 25
Plant response rating, Foxtail, Giant [11, 22]: 35
Plant response rating, Foxtail, Giant [11, 16]: 80
Plant response rating, Foxtail, Giant [11, 17]: 75
Plant response rating, Foxtail, Giant [11, 18]: 80
Plant response rating, Foxtail, Giant [11, 19]: 90
Foxtail, Giant plant response rating [11, 20]: 100
Foxtail, Giant plant response rating [11, 21]: 30
Johnsongrass plant response rating [12, 15]: 5
Plant response rating, Johnsongrass [12, 16]: 25
Plant response rating, Johnsongrass [12, 17]: 0
Plant response rating, Johnsongrass [12, 18]: 0
Plant response rating, Johnsongrass [12, 19]: 5
Johnsongrass plant response rating [12, 20]: 30
Johnsongrass plant response rating [12, 21]: 5
Waterhemp plant response rating [13, 15]: 75
Plant response rating, Waterhemp [13, 22]: 98
Plant response rating, Waterhemp [13, 16]: 95
Plant response rating, Waterhemp [13, 17]: 80
Plant response rating, Waterhemp [13, 18]: 98
Plant response rating, Waterhemp [13, 19]: 100
Waterhemp plant response rating [13, 20]: 100
Waterhemp plant response rating [13, 21]: 85
Soybean plant response rating (soybean (Glycine max); [15]): 0
Plant response rating, Soybean (soybean (Glycine max); [22]): 10
Plant response rating, Soybean (soybean (Glycine max); [16]): 15
Plant response rating, Soybean (soybean (Glycine max); [17]): 35
Plant response rating, Soybean (soybean (Glycine max); [18]): 0
Plant response rating, Soybean (soybean (Glycine max); [19]): 0
Soybean plant response rating (soybean (Glycine max); [20]): 5
Soybean plant response rating (soybean (Glycine max); [21]): 5
Ryegrass, Italian plant response rating [14, 15]: 65
Plant response rating, Ryegrass, Italian [14, 22]: 90
Plant response rating, Ryegrass, Italian [14, 16]: 95
Plant response rating, Ryegrass, Italian [14, 17]: 85
Plant response rating, Ryegrass, Italian [14, 18]: 90
Plant response rating, Ryegrass, Italian [14, 19]: 90
Ryegrass, Italian plant response rating [14, 20]: 90
Ryegrass, Italian plant response rating [14, 21]: 90

Cc1ccc2ccccc2c1-c1c(OC(=O)N2CCOCC2)c(Br)nn(C)c1=O [Compound 176]
Plant response rating, Nutsedge, Yellow [1, 23]: 5
Nutsedge, Yellow plant response rating [1, 24]: 5
Plant response rating, Nutsedge, Yellow [1, 25]: 5
Nutsedge, Yellow plant response rating [1, 26]: 5
Plant response rating, Oilseed Rape [2, 23]: 95
Oilseed Rape plant response rating [2, 24]: 95
Plant response rating, Oilseed Rape [2, 25]: 95
Oilseed Rape plant response rating [2, 26]: 95
Plant response rating, Galium [3, 23]: 0
Galium plant response rating [3, 24]: 5
Plant response rating, Galium [3, 25]: 60
Galium plant response rating [3, 26]: 60
Plant response rating, Pigweed [4, 23]: 20
Pigweed plant response rating [4, 24]: 30
Plant response rating, Pigweed [4, 25]: 75
Pigweed plant response rating [4, 26]: 50
Plant response rating, Velvetleaf [5, 23]: 0
Velvetleaf plant response rating [5, 24]: 25
Plant response rating, Velvetleaf [5, 25]: 80
Velvetleaf plant response rating [5, 26]: 75
Plant response rating, Corn (corn (Zea mays); [23]): 0
Corn plant response rating (corn (Zea mays); [24]): 10
Plant response rating, Corn (corn (Zea mays); [25]): 5
Corn plant response rating (corn (Zea mays); [26]): 0
Plant response rating, Lambsquarters [6, 23]: 60
Lambsquarters plant response rating [6, 24]: 80
Plant response rating, Lambsquarters [6, 25]: 90
Lambsquarters plant response rating [6, 26]: 80
Plant response rating, Morningglory [7, 23]: 85
Morningglory plant response rating [7, 24]: 85
Plant response rating, Morningglory [7, 25]: 100
Morningglory plant response rating [7, 26]: 98
Plant response rating, Crabgrass, Large [8, 23]: 10
Crabgrass, Large plant response rating [8, 24]: 5
Plant response rating, Crabgrass, Large [8, 25]: 30
Crabgrass, Large plant response rating [8, 26]: 20
Plant response rating, Blackgrass [9, 23]: 0
Blackgrass plant response rating [9, 24]: 0
Plant response rating, Blackgrass [9, 25]: 0
Blackgrass plant response rating [9, 26]: 0
Plant response rating, Wheat [10, 23]: 0
Wheat plant response rating [10, 24]: 5
Plant response rating, Wheat [10, 25]: 40
Wheat plant response rating [10, 26]: 10
Plant response rating, Foxtail, Giant [11, 23]: 5
Foxtail, Giant plant response rating [11, 24]: 15
Plant response rating, Foxtail, Giant [11, 25]: 40
Foxtail, Giant plant response rating [11, 26]: 35
Plant response rating, Johnsongrass [12, 23]: 5
Johnsongrass plant response rating [12, 24]: 5
Plant response rating, Johnsongrass [12, 25]: 10
Johnsongrass plant response rating [12, 26]: 5
Plant response rating, Waterhemp [13, 23]: 20
Waterhemp plant response rating [13, 24]: 40
Plant response rating, Waterhemp [13, 25]: 55
Waterhemp plant response rating [13, 26]: 60
Plant response rating, Soybean (soybean (Glycine max); [23]): 5
Soybean plant response rating (soybean (Glycine max); [24]): 10
Plant response rating, Soybean (soybean (Glycine max); [25]): 10
Soybean plant response rating (soybean (Glycine max); [26]): 15
Plant response rating, Ryegrass, Italian [14, 23]: 0
Ryegrass, Italian plant response rating [14, 24]: 0
Plant response rating, Ryegrass, Italian [14, 25]: 10
Ryegrass, Italian plant response rating [14, 26]: 0
